In patent US12156874B2, “Inhibitors of TRPC6” (Boehringer Ingelheim International GmbH, priority 2019, dated 2024):

Target: T1, human TRPC6 (Homo sapiens, UniProt Q9Y210)
T1 construct: expressed in transfected cells; host or cells: HEK293
T1 sequence (Q9Y210 1-931): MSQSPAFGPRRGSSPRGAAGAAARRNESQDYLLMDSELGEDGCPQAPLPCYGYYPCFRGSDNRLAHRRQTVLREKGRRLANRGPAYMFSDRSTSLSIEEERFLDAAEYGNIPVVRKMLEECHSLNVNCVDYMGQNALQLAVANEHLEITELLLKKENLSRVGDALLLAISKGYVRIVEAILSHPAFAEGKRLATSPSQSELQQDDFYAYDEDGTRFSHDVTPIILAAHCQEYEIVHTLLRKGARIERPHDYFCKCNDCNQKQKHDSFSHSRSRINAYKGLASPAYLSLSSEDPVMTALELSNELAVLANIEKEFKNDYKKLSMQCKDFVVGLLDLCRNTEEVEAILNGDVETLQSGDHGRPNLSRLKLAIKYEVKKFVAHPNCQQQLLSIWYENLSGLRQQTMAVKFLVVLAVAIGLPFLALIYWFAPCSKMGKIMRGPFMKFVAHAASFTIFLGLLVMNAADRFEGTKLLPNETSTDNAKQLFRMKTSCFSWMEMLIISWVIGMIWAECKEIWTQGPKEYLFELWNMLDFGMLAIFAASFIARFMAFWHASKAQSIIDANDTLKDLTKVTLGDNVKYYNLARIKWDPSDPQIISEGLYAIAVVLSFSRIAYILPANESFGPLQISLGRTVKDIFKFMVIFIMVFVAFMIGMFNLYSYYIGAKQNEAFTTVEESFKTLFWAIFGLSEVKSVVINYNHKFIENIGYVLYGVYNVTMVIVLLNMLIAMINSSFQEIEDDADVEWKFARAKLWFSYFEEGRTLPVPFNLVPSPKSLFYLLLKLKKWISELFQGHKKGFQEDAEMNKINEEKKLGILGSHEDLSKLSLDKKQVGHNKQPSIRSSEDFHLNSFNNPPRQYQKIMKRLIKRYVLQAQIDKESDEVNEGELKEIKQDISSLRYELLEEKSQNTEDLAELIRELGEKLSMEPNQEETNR
Test: Assay A: Determination of TRPC6 inhibition, whole-cell patch clamp assay
Assay type: cell-based
Conditions: 30 nM; HEK293 cells expressing human TRPC6; pre-incubated at least 3 h; average inward current densities vs vehicle; activated by 10 μM ethyl 8-fluoro-1H,2H,3H,4H,5H-pyrido[4,3-b]indole-2-carboxylate
From the text: Assay A: Determination of TRPC6 Inhibition
HEK293 cells transfected with a plasmid expressing human TRPC6 are used for a patch clamp assay. Patch clamp experiments permit the detection of currents through TRPC6 channels in cellular systems as mentioned above. For whole-cell patch clamp recordings, a glass capillary electrode filled with electrolyte is brought into contact with a single cell and a high-resistance (gigaohm) seal is established with the cell membrane. The membrane is then ruptured to achieve the whole-cell configuration, permitting control of the intracellular electrical potential and measurement of electrical currents across the cell membrane using an amplifier connected to the electrode. A perfusion system permits control of the extracellular solution, including the addition of inhibitors and activators of TRPC6 channels. The TRPC6 current can be activated by 10 μM ethyl 8-fluoro-1H,2H,3H,4H,5H-pyrido[4,3-b]indole-2-carboxylate (commercially available, MFCD02930345) in the extracellular solution.
For the characterization of TRPC6 inhibitors, TRPC6 expression was induced for 20-48 hours, cells were removed from growth plates, and replated at low density (to attain good single-cell physical separation) in small dishes for measurement. Patch clamp recordings were performed in the whole-cell configuration at a holding potential of −40 mV. Every 1.5 seconds, a 400 ms voltage ramp was applied from −80 to +80 mV, flanked by 50 ms constant segments at −80 and +80 mV, respectively. TRPC6-mediated currents were quantified during those constant segments at −80 mV and +80 mV. The internal (pipette) solution consisted of 140 mM cesium aspartate, 10 mM EGTA, 1.91 mM CaCl2, 2.27 mM MgCl2 and 10 mM HEPES, pH 7.2 with CsOH, 40 nM calculated free Ca^2+. The external (bath) solution consisted of 145 mM NaCl, 4.5 mM KCl, 3 mM MgCl2, 10 mM HEPES, 10 mM glucose, 1 mM EGTA, pH 7.4 with NaOH. TRPC6 expressing cells were pre-incubated with potential inhibitors at either 30 nM or at various concentrations (for concentration-response-curves) or vehicle for at least 3 h and both maximal inward and outward currents were determined after addition of ethyl 8-fluoro-1H,2H,3H,4H,5H-pyrido[4,3-b]indole-2-carboxylate. Percent current inhibition was calculated from the average inward current densities of treated and vehicle cells. Current densities were calculated as absolute current normalized with respect to the individual cell's membrane capacitance as a surrogate parameter for cellular surface area. The number of cells measured for each group was chosen in a way that an average of 50% current inhibition with respect to the vehicle group would yield a statistically significant difference (p<0.05) in 90% of the cases based on the variability in current expression between cells. For the estimation of half-inhibitory concentrations, the Hill equation was fitted to the average % percent inhibition values at a series of concentrations of a specific compound.

First: COc1ccc(Oc2ccc(C(=O)N3CC[C@H](c4nnc(N)cc4C)C[C@@H]3C)cc2)cn1 [Compound 1, 6-[(2S,4S)-1-{4-[(6-Methoxypyridin-3-yl)oxy]benzoyl}-2-methylpiperidin-4-yl]-5-methylpyridazin-3-amine trifluoroacetic acid]
Second: COc1ccc(Oc2ccc(C(=O)N3CCC(c4nnc(N)cc4C)CC3)cc2)cn1 [Compound 7, 6-(1-{4-[(6-Methoxypyridin-3-yl)oxy]benzoyl}piperidin-4-yl)-5-methylpyridazin-3-amine trifluoroacetic acid]
The inhibition at 0.03 µM of the first is higher: 81% for the first, 61% for the second.

Compared with `COc1ccc(Oc2ccc(C(=O)N3CC[C@H](c4nnc(N)cc4C)C[C@@H]3C)cc2OC)cn1` [Compound 2, 6-[(2S,4S)-1-{3-Methoxy-4-[(6-methoxypyridin-3-yl)oxy]benzoyl}-2-methylpiperidin-4-yl]-5-methylpyridazin-3-amine], `COc1cc(C(=O)N2CC[C@H](c3nnc(N)cc3C)C[C@@H]2C)ccc1Oc1ccc(C(F)(F)F)nc1` [Compound 4, 6-[(2S,4S)-1-(3-Methoxy-4-{[6-(trifluoromethyl)pyridin-3-yl]oxy}benzoyl)-2-methylpiperidin-4-yl]-5-methylpyridazin-3-amine] is lower in inhibition at 0.03 µM: 60% for the first, 12% for the second.

Compared with `COc1ccc(Oc2cnc(C(=O)N3CCC(c4ccc(N)nn4)CC3)cc2OC)cn1` [Compound 5, 6-(1-{4-Methoxy-5-[(6-methoxypyridin-3-yl)oxy]pyridine-2-carbonyl}piperidin-4-yl)pyridazin-3-amine trifluoracetic acid], `COc1ccc(Oc2cnc(C(=O)N3CCC(c4nnc(N)cc4C)CC3)cc2OC)cn1` [Compound 9, 6-(1-{4-Methoxy-5-[(6-methoxypyridin-3-yl)oxy]pyridine-2-carbonyl}piperidin-4-yl)-5-methylpyridazin-3-amine trifluoracetic acid] is higher in inhibition at 0.03 µM: 27% for the first, 51% for the second.

Going from `COc1ccc(Oc2ccc(C(=O)N3CC[C@@H](c4nnc(N)cc4C)[C@@H](C)C3)cc2OC)cn1` [Compound 6, 6-[(3R,4R)-1-{3-Methoxy-4-[(6-methoxypyridin-3-yl)oxy]benzoyl}-3-methylpiperidin-4-yl]-5-methylpyridazin-3-amine] to `COc1ccc(Oc2ccc(C(=O)N3CCC(c4nnc(N)cc4C)CC3)cc2OC)cn1` [Compound 8, 6-(1-{3-Methoxy-4-[(6-methoxypyridin-3-yl)oxy]benzoyl}piperidin-4-yl)-5-methylpyridazin-3-amine trifluoroacetic acid], the inhibition at 0.03 µM falls from 72% to 37%.

Tested on: PASMC
Test: not given
Conditions: cited from earlier work

For `COc1ccccc1Oc1c(NS(=O)(=O)c2ccc(C(C)(C)C)cc2)nc(-c2ncccn2)nc1OCCO` [bosentan], the “proliferation of PASMC” value is listed as “decreases proliferation”.

Tested on: TRPC6
Test: not given
Conditions: lung tissue of IPAH patients; cited from earlier work

In the case of `COc1ccccc1Oc1c(NS(=O)(=O)c2ccc(C(C)(C)C)cc2)nc(-c2ncccn2)nc1OCCO` [bosentan], the “expression of TRPC6” value is listed as “decreases expression of TRPC6”.
